Experimental data taken from US9320735B2, “Myeloid derived suppressor cell inhibiting agents” (Colorado State University Research Foundation, priority 2010, dated 2016).
Where two headings read alike, the source gives them in different places.

Columns and labels:
CCR2 [1] = biological target: T1, CCR2 (Homo sapiens, UniProt P41597); settings: bind or taxis not given; read-out: CCR2 antagonist potency; cited from earlier work
CCR2 [2] = biological target: T1, CCR2; settings: read-out: CCR2 IC(50) bind; cited from earlier work
human recombinant CCR2b = biological target: T2, human recombinant CCR2b (Homo sapiens, UniProt P41597); settings: read-out: IC50 for inhibition of human recombinant CCR2b receptor; cited from earlier work
T2 sequence (P41597 1-360 isoform P41597-2): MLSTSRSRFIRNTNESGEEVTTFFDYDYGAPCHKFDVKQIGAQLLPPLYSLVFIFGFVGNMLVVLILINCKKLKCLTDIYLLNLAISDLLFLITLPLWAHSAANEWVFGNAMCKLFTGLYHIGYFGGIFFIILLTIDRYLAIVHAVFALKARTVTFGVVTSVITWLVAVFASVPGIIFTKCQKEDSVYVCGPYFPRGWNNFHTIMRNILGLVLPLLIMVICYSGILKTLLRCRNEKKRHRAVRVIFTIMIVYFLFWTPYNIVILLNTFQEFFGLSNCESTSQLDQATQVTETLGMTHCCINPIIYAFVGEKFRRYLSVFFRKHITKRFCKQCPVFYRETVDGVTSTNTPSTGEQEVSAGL

human recombinant CCR1 = biological target: T3, human recombinant CCR1 (Homo sapiens, UniProt P32246); settings: read-out: IC50 for inhibition of human recombinant CCR1 receptor; cited from earlier work
T3 sequence (P32246 1-355): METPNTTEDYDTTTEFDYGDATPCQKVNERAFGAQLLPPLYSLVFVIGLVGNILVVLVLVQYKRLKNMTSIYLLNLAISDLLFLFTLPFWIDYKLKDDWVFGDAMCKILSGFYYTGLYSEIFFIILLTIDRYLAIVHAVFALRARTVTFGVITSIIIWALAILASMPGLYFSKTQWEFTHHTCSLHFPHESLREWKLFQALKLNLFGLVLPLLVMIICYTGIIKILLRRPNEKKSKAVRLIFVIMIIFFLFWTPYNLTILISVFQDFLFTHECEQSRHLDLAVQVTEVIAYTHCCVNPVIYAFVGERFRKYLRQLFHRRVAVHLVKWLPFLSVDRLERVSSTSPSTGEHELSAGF

α1A receptor = biological target: T4, α1A receptor (Homo sapiens, UniProt P35348); settings: cited from earlier work
T4 sequence (P35348 1-466): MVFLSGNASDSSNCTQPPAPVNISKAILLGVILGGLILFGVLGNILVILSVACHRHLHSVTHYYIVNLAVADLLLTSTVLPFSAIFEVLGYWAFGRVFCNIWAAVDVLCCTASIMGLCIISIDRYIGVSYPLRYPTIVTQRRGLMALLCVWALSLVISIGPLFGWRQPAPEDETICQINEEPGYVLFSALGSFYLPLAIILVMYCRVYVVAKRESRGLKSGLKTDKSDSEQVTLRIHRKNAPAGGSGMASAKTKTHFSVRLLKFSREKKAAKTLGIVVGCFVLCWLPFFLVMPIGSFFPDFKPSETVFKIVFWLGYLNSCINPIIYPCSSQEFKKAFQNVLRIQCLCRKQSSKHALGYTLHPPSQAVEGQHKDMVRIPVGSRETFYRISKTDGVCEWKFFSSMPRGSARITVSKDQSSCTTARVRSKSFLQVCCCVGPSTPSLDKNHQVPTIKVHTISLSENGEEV

[3] = test system: MCP-1-stimulated chemotaxis; settings: read-out: IC50, block of MCP-1-stimulated chemotaxis; cited from earlier work
CCR2 [4] = biological target: T5, CCR2 (Mus musculus, UniProt P51683); experiment: Antibody titers to ovalbumin after CLDC/ovalbumin vaccination with RS102895 (FIG. 33); assay type: in vivo, mice; settings: 5 mg/kg 1 day before, same day, 1 day after
T5 construct: endogenous in cells
Description: FIG. 33. Effects of co-administration of RS102895 (small molecule inhibitor, Tocris Bioscience), on antibody responses following vaccination via two different modes of administration i.p. (intraperitoneally) or SQ (subcutaneous). Mice were vaccinated SQ with standard vaccine adjuvant (CLDC) and 5 ug ovalbumin, and boosted 10 days later. The first group of mice (n=4 per group) received the vaccine only (cross-hatch bar). A second group of mice was vaccinated and also treated 1 day before, on the same day, and 1 day after with 5 mg/kg of the CCR2 antagonist RS102895 (horizontal line bar), administered i.p. A third group of mice was vaccinated and also treated 1 day before, on the same day, and 1 day after with 5 mg/kg of the CCR2 antagonist RS102895, administered s.c. at the site of vaccination (vertical line bar). Antibody titers to ovalbumin were determined 2 weeks after the boost and plotted as endpoint dilution titers for all animals in all groups. […]
Mice were vaccinated subcutaneous (s.c.) with standard vaccine adjuvant (CLDC) (Cationic liposome-DNA complexes) and 5 ug ovalbumin and boosted 10 days later. […] Antibody titers to ova were determined 2 weeks after the boost and plotted as endpoint dilution titers. […]

5-HT1A receptor = settings: cited from earlier work
[5] = test system: MCP-1-stimulated calcium influx; settings: read-out: IC50, block of MCP-1-stimulated calcium influx; cited from earlier work
CCR2 [6] = biological target: T5, CCR2; experiment: IFN-γ release by spleen cells of vaccinated mice treated with RS102895 (FIG. 34); assay type: in vivo
Description: FIG. 34. Effects of co-administration of RS102895 (small molecule inhibitor, Tocris BioSciences), on spleen lymphocyte production of IFN-γ from vaccinated animals (T cell response). Mice were vaccinated s.c. with standard vaccine adjuvant (CLDC) and 5 ug ovalbumin and boosted 10 days later. A first group of mice (n=4 per group) received the vaccine only (cross-hatch). A second group of mice was vaccinated and also treated 1 day before, on the same day, and 1 day after with 5 mg/kg of the CCR2 antagonist RS102895, administered i.p. (horizontal line bar). A third group of mice was vaccinated and also treated 1 day before, on the same day, and 1 day after with 5 mg/kg of the CCR2 antagonist RS102895, administered s.q. at the site of vaccination (vertical line bar). The mice were sacrificed 2 weeks after the booster vaccination and spleen cells were incubated in vitro with ovalbumin (50 ug/ml) for 72 hours. Release of […] into the supernatants was determined by ELISA.
Mice were vaccinated s.c. with standard vaccine adjuvant (CLDC) and 5 ug ovalbumin and boosted 10 days later. One group of mice (n=4 per group) received the vaccine only. A second group of mice was vaccinated and also treated 1 day before, on the same day, and 1 day after with 5 mg/kg of the CCR2 antagonist RS102895, administered i.p. A third group of mice was vaccinated and also treated 1 day before, on the same day, and 1 day after with 5 mg/kg of the CCR2 antagonist RS102895, administered s.c. at the site of vaccination. The mice were sacrificed 2 weeks after the booster vaccination and spleen cells were incubated in vitro with ovalbumin (50 ug/ml) for 72 hours and release of IFN-γ into the supernatants was determined by ELISA. […] The data from this study is presented at FIG. 34.

α1D receptor = biological target: T6, α1D receptor (Homo sapiens, UniProt P25100); settings: cited from earlier work
T6 sequence (P25100 1-572): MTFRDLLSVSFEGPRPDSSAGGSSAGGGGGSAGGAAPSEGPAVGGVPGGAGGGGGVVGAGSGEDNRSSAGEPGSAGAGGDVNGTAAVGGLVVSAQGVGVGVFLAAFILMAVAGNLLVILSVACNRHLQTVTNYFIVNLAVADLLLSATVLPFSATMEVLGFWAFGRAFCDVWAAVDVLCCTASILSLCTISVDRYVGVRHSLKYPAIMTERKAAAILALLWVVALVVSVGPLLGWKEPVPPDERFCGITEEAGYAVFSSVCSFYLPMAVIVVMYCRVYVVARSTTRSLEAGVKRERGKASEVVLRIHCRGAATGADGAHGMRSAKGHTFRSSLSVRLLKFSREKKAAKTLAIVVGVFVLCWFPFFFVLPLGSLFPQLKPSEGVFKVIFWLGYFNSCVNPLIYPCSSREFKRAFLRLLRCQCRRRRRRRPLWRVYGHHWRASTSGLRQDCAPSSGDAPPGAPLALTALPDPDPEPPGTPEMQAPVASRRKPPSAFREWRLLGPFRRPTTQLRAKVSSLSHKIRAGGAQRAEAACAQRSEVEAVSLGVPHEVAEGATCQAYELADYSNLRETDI

T5 sequence (P51683 whole entry): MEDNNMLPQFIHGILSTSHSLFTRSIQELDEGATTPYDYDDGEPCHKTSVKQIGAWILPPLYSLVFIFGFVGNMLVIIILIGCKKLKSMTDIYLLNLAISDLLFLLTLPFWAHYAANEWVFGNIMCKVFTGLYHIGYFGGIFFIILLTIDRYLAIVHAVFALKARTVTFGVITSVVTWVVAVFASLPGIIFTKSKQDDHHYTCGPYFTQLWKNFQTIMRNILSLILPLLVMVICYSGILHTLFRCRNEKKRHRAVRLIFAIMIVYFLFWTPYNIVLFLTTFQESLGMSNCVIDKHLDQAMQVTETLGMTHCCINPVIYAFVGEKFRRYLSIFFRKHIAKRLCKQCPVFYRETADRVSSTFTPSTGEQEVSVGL
T1 sequence (P41597 whole entry, species assumed): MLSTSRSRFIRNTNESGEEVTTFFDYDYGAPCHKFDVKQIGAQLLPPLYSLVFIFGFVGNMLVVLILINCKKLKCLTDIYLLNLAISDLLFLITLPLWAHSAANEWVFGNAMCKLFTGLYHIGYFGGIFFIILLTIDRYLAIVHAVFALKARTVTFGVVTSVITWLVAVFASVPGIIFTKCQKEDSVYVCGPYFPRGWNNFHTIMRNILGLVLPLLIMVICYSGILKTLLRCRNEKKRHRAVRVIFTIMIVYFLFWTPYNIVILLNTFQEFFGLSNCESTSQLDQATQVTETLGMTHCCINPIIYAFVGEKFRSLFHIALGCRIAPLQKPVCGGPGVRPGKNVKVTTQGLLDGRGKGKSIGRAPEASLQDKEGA

O=C(CNC(=O)c1ccccc1)NC1CCN(Cc2ccccc2)C1 (stereo not drawn) [3-Aminopyrrolidines]
IC50 (CCR2 [1]): 3 nM

CN(CCN1CCCCC1)c1ccc(-c2nc3cc(Sc4ccc(Cl)c(Cl)c4)ccc3[nH]2)cc1 [Benzimidazoles]
IC50 (CCR2 [2]): 200 to 300 nM

Cl.O=C1Nc2ccccc2C2(CCN(CCc3ccc(C(F)(F)F)cc3)CC2)O1 [RS102895]
IC50 (human recombinant CCR2b): 360 nM | IC50 (human recombinant CCR1): 17800 nM | inhibition of α1A receptor (α1A receptor): inhibits | IC50 [3]: 1700 nM | antibody titers to ova relative to vaccine alone (CCR2 [4]; either route): ≥ 2 × | antibody titers to ovalbumin vs vaccine alone (CCR2 [4]; i.p. or s.c., 2 weeks after boost): significantly higher antibody titers | inhibition of 5-HT1A receptor (5-HT1A receptor): inhibits | IC50 [5]: 32 nM | IFN-γ production by spleen cells (CCR2 [6]; 5 mg/kg SQ at site of vaccination, ovalbumin 50 ug/ml 72 hours, without CCR2 antagonist about 450): about 1,400 pg/ml | IFN-γ production by spleen lymphocytes (CCR2 [6]; 5 mg/kg i.p., ovalbumin 50 ug/ml 72 hours, without CCR2 antagonist about 450): about 2,300 pg/ml | IFN-γ production vs vaccinated without RS102895 (CCR2 [6]; 5 mg/kg, either route): significantly higher amounts of IFN-γ | inhibition of α1D receptor (α1D receptor): inhibits

O=C(/C=C/c1ccc(Cl)c(Cl)c1)NC1CCC(CN2C3CCC2CC(c2c[nH]c4ccc(O)cc24)C3)CC1 (stereo not drawn) [SB-380732]
IC50 (CCR2 [2]): 50 nM
